From patent US7696246B2 (Ligand Pharmaceuticals Incorporated, priority 1999, dated 2010)

Columns and labels:
human AR [1] = target: T1, human AR (Homo sapiens, UniProt P10275); assay: Co-transfection assay, AR agonist activity (CV-1 cells, MTV-LUC reporter); assay type: cell-based; conditions: CV-1 cells; for EC50: agonist potency EC50; for AR Agonist CV-1 Cells Efficacy (%): percent maximal response relative to reference agonist DHT
T1 sequence (P10275 1-920): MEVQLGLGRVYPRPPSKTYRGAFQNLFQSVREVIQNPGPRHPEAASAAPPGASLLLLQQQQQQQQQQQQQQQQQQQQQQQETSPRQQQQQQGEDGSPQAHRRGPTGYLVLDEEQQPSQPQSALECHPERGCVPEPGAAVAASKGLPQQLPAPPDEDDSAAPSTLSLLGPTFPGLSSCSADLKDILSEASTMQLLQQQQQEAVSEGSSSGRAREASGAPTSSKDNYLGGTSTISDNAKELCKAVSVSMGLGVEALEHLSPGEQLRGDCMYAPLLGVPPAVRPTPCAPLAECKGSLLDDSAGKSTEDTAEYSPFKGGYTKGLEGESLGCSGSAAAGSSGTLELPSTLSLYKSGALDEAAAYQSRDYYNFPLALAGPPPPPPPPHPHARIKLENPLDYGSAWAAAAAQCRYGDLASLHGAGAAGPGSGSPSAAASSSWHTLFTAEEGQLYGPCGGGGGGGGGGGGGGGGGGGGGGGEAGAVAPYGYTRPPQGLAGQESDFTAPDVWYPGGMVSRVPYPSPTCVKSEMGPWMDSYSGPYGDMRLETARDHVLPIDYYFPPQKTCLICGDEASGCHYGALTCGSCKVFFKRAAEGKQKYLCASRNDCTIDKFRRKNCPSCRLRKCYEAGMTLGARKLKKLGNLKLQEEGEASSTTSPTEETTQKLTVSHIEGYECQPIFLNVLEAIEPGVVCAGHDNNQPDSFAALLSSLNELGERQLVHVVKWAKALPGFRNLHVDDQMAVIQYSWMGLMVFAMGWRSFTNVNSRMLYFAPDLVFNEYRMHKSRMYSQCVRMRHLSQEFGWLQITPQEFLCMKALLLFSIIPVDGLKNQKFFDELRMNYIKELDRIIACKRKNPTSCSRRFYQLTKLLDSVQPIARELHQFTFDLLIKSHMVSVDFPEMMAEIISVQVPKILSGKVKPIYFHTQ

human AR [2] = target: T1, human AR; assay: Co-transfection assay, AR antagonist activity (CV-1 cells, in presence of DHT); assay type: cell-based; conditions: for AR Antagonist CV-1 Cells Efficacy (%): percent maximal inhibition, DHT at its EC50; for IC50: read-out: AR Antagonist CV-1 Cells Potency
human AR [3] = target: T1, human AR; assay: AR whole cell competitive binding assay (COS-1 cells, 3H-DHT); conditions: 1 nM 3H-DHT, Cheng-Prusoff

| Structure (SMILES) | EC50 (human AR [1]) | AR Antagonist CV-1 Cells Efficacy (%) (human AR [2]) | IC50 (human AR [2]) | Ki (human AR [3]) | AR Agonist CV-1 Cells Efficacy (%) (human AR [1]) |
| --- | --- | --- | --- | --- | --- |
| O=c1cc(C(F)(F)F)c2cc(N3CCCc4ccccc43)ccc2[nH]1 [Compound 348, 6-(1-Tetrahydroquinolino)-4-trifluoromethyl-2(1H)-quinolinone] | > 10000 nM | 81% | 24 nM | 62 nM | – |
| O=c1cc(C(F)(F)F)c2cc(N3CCc4ccccc43)ccc2[nH]1 [Compound 347, 6-(1-Indolino)-4-trifluoromethyl-2(1H)-quinolinone] | > 10000 nM | 89% | 59 nM | 970 nM | – |
| O=c1cc(C(F)(F)F)c2cc(N(Cc3ccccc3)Cc3ccccc3)ccc2[nH]1 [Compound 272, 6-(bis-N,N-Benzyl)amino-4-trifluoromethyl-2(1H)-quinolinone] | > 10000 nM | 67% | 7 nM | > 1000 nM | – |
| CC1COC(C(F)(F)F)N1c1ccc2[nH]c(=O)cc(C(F)(F)F)c2c1 (racemic) [Compound 352, (±)-6-(2-Trifluoromethyl-5-trans-methyl-1-oxazolidino)-4-trifluoromethyl-2(1H)-quinolinone] | 12 nM | na (na = not active (i.e. efficacy of <20 and potency of >10,000)) | > 10000 nM | 25 nM | 113% |
| Cc1cccc(-c2ccc3[nH]c(=O)cc(C(F)(F)F)c3c2)c1 [Compound 738, 4-Trifluoromethyl-6-(3-methylphenyl)-2(1H)-quinolinone] | > 10000 nM | 91% | 27 nM | > 1000 nM | – |
| CCC[C@@H]1CC[C@H](CCC)N1c1ccc2[nH]c(=O)cc(C(F)(F)F)c2c1 [Compound 366, 6-(2,5-cis-Dipropyl-1-pyrrolidino)-4-trifluoromethyl-2(1H)-quinolinone] | > 10000 nM | 85% | 31 nM | > 1000 nM | – |
| CCCOc1c(NCC(F)(F)F)ccc2[nH]c(=O)cc(C(F)(F)F)c12 [Compound 602, 6-(N-2,2,2-Trifluoroethyl)amino-5-propyloxy-4-trifluoromethyl-2(1H)-quinolinone] | > 10000 nM | 85% | 27 nM | 45 nM | – |
| CC1CCCCN1c1ccc2[nH]c(=O)cc(C(F)(F)F)c2c1 (racemic) [Compound 314, (±)-6-(2-Methyl-1-piperidino)-4-trifluoromethyl-2(1H)-quinolinone] | 5.3 nM | na (na = not active (i.e. efficacy of <20 and potency of >10,000)) | > 10000 nM | 4.6 nM | 83% |
| CC1(C)CC(=O)Nc2ccc(N(CC(F)(F)F)CC(F)(F)F)cc21 [Compound 501, 3,4-Dihydro-4,4-dimethyl-6-(bis-N,N-2,2,2-trifluoroethyl)amino-2(1H)-quino-linone] | 5.8 nM | na (na = not active (i.e. efficacy of <20 and potency of >10,000)) | > 10000 nM | 16 nM | 110% |
| O=c1cc(C(F)(F)F)c2cc(N3CCCC[C@@H]3CCl)ccc2[nH]1 [Compound 433, (−)R-6-(2-Chloromethyl-1-piperidino)-4-trifluoromethyl-2(1H)-quinolinone] | 6.4 nM | na (na = not active (i.e. efficacy of <20 and potency of >10,000)) | > 10000 nM | 1.5 nM | 120% |
| O=c1cc(C(F)(F)F)c2cc(-c3ccc(Cl)cc3Cl)ccc2[nH]1 [Compound 753, 4-Trifluoromethyl-6-(2,4-dichlorophenyl)-2(1H)-quinolinone] | > 10000 nM | 76% | 51 nM | 74 nM | – |
| O=c1cc(C(F)(F)F)c2cc(N(CC(F)(F)C(F)(F)F)CC(F)(F)C(F)(F)F)ccc2[nH]1 [Compound 224, 6-(bis-2,2,3,3,3-Pentafluoropropyl)amino-4-trifluoromethyl-2(1H)-quinolinone] | 41 nM | na (na = not active (i.e. efficacy of <20 and potency of >10,000)) | > 10000 nM | 206 nM | 108% |
| CCCN(CC(F)(F)F)c1ccc2[nH]c(=O)cc(C)c2c1 [Compound 374, 6-(N-Propyl-N-2,2,2-trifluoroethyl)amino-4-methyl-2(1H)-quinolinone] | 2.2 nM | na (na = not active (i.e. efficacy of <20 and potency of >10,000)) | > 10000 nM | 6.2 nM | 77% |
| COC[C@H]1CCCN1c1ccc2[nH]c(=O)cc(C(F)(F)F)c2c1 [Compound 423, (R)-6-(2-Methoxymethyl-1-pyrrolidino)-4-trifluoromethyl-2(1H)-quinolinone] | 86 nM | na (na = not active (i.e. efficacy of <20 and potency of >10,000)) | > 10000 nM | 22 nM | 57% |
| COc1cccc(-c2ccc3[nH]c(=O)cc(C)c3c2)c1 [Compound 758, 4-Methyl-6-(3-methoxyphenyl)-2(1H)-quinolinone] | > 10000 nM | 94% | 87 nM | 3.6 nM | – |
| O=c1cc(C(F)(F)F)c2cc(N3CCCC[C@@H]3[C@@H](O)C(F)(F)F)ccc2[nH]1 [Compound 457, (+)-6-(2R-(1R-Hydroxy-2,2,2-trifluoroethyl)-1-piperidino)-4-trifluoromethyl-2(1H)-quinolinone] | 3 nM | na (na = not active (i.e. efficacy of <20 and potency of >10,000)) | > 10000 nM | 3.2 nM | 85% |
| O=c1cc(C(F)(F)F)c2cc(N3CCCCCC3)ccc2[nH]1 [Compound 330, 6-(1-Azepano)-4-trifluoromethyl-2(1H)-quinolinone] | 3.9 nM | na (na = not active (i.e. efficacy of <20 and potency of >10,000)) | > 10000 nM | 55 nM | 81% |
| CC(C)CN(CC(F)(F)F)c1ccc2[nH]c(=O)cc(C(F)(F)F)c2c1 [Compound 259, 6-(N-2,2,2-trifluoroethyl-N-isobutyl)amino-4-trifluoromethyl-2(1H)-quinolinone] | 1.9 nM | na (na = not active (i.e. efficacy of <20 and potency of >10,000)) | > 10000 nM | 6.3 nM | 97% |
| CCN(CC(C)C)c1ccc2[nH]c(=O)cc(C(F)(F)F)c2c1 [Compound 241, 6-(N-Ethyl-N-isobutyl)amino-4-trifluoromethyl-2(1H)-quinolinone] | 2.9 nM | na (na = not active (i.e. efficacy of <20 and potency of >10,000)) | > 10000 nM | 30 nM | 73% |
| O=c1cc(C(F)(F)F)c2cc(N(CC(Cl)Cl)CC(Cl)Cl)ccc2[nH]1 [Compound 232, 6-(bis-N-2,2-Dichloroethyl)amino-4-trifluoromethyl-2(1H)-quinolinone] | 3.4 nM | na (na = not active (i.e. efficacy of <20 and potency of >10,000)) | > 10000 nM | 7.6 nM | 55% |
